Experimental data taken from ChEMBL document CHEMBL4622872, “Discovery of DS-1971a, a Potent, Selective NaV1.7 Inhibitor” (J Med Chem, 2020).

Assays:
[1] = Distribution coefficient, log D of the compound in 1-octanol and PBS buffer at pH 7.4 measured after 30 mins by LC-MS analysis; format: physicochemical; settings: 1-octanol/PBS buffer
[2] = Aqueous thermodynamic solubility of the compound at pH 6.8 measured after 4 hrs by UV-HPLC analysis; format: physicochemical; settings: buffer
[3] = Stability of the compound in mouse liver microsomes assessed as parent compound remaining measured after 0.5 hrs; format: ADME, Microsome; settings: microsomes, 0.5 h
[4] = Toxicity in Crl:CD1(ICR) mouse assessed as effect on central nervous system by measuring NOEL administered as single dose measured up to 24 hrs by Irwin's test; settings: in vivo
[5] = Stability of the compound in rat liver microsomes assessed as parent compound remaining measured after 0.5 hrs; format: ADME, Microsome; settings: read-out: Stability
[6] = Stability of the compound in dog liver microsomes assessed as parent compound remaining measured after 0.5 hrs; format: ADME, Canis lupus familiaris, Microsome; settings: read-out: Stability
[7] = Stability of the compound in monkey liver microsomes assessed as parent compound remaining measured after 0.5 hrs; format: ADME, Macaca mulatta, Microsome; settings: rhesus monkey, read-out: Stability
[8] = Stability of the compound in human liver microsomes assessed as parent compound remaining measured after 0.5 hrs; format: ADME, Microsome; settings: read-out: Stability
[9] = Cmax in cynomolgus monkey at 1 mg/kg, iv or po by LC-MS/MS analysis; format: ADME, organism-based, Macaca fascicularis; settings: in vivo
[10] = Tmax in cynomolgus monkey at 1 mg/kg, iv or po by LC-MS/MS analysis; format: ADME, organism-based, Macaca fascicularis; settings: in vivo
[11] = Half life in cynomolgus monkey at 1 mg/kg, iv or po by LC-MS/MS analysis; format: ADME, organism-based, Macaca fascicularis; settings: in vivo
[12] = AUC (infinity) in cynomolgus monkey at 1 mg/kg, iv or po by LC-MS/MS analysis; format: ADME, organism-based, Macaca fascicularis; settings: in vivo
[13] = Oral bioavailability in cynomolgus monkey at 1 mg/kg by LC-MS/MS analysis; format: ADME, organism-based, Macaca fascicularis; settings: in vivo
[14] = Clearance in cynomolgus monkey at 1 mg/kg, iv by LC-MS/MS analysis; format: ADME, organism-based, Macaca fascicularis; settings: in vivo
[15] = Volume of distribution at steady state in cynomolgus monkey at 1 mg/kg, iv by LC-MS/MS analysis; format: ADME, organism-based, Macaca fascicularis; settings: in vivo, read-out: Vdss
[16] = Cmax in Beagle dog at 1 mg/kg, iv or po by LC-MS/MS analysis; format: ADME, organism-based, Canis lupus familiaris; settings: in vivo
[17] = Tmax in Beagle dog at 1 mg/kg, iv or po by LC-MS/MS analysis; format: ADME, organism-based, Canis lupus familiaris; settings: in vivo
[18] = Half life in Beagle dog at 1 mg/kg, iv or po by LC-MS/MS analysis; format: ADME, organism-based, Canis lupus familiaris; settings: in vivo
[19] = AUC (infinity) in Beagle dog at 1 mg/kg, iv or po by LC-MS/MS analysis; format: ADME, organism-based, Canis lupus familiaris; settings: in vivo
[20] = Oral bioavailability in Beagle dog at 1 mg/kg by LC-MS/MS analysis; format: ADME, organism-based, Canis lupus familiaris; settings: in vivo
[21] = Clearance in Beagle dog at 1 mg/kg, iv by LC-MS/MS analysis; format: ADME, organism-based, Canis lupus familiaris; settings: in vivo
[22] = Volume of distribution at steady state in Beagle dog at 1 mg/kg, iv by LC-MS/MS analysis; format: ADME, organism-based, Canis lupus familiaris; settings: in vivo, read-out: Vdss
[23] = Cmax in Sprague-Dawley rat at 1 mg/kg, iv or po by LC-MS/MS analysis; format: ADME, organism-based; settings: in vivo
[24] = Tmax in Sprague-Dawley rat at 1 mg/kg, iv or po by LC-MS/MS analysis; format: ADME, organism-based; settings: in vivo
[25] = Half life in Sprague-Dawley rat at 1 mg/kg, iv or po by LC-MS/MS analysis; format: ADME, organism-based; settings: in vivo
[26] = AUC (infinity) in Sprague-Dawley rat at 1 mg/kg, iv or po by LC-MS/MS analysis; format: ADME, organism-based; settings: in vivo
[27] = Oral bioavailability in Sprague-Dawley rat at 1 mg/kg by LC-MS/MS analysis; format: ADME, organism-based; settings: in vivo
[28] = Clearance in Sprague-Dawley rat at 1 mg/kg, iv by LC-MS/MS analysis; format: ADME, organism-based; settings: in vivo
[29] = Volume of distribution at steady state in Sprague-Dawley rat at 1 mg/kg, iv by LC-MS/MS analysis; format: ADME, organism-based; settings: in vivo, read-out: Vdss
[30] = Cmax in ddy mouse at 1 mg/kg, iv or po by LC-MS/MS analysis; format: ADME, organism-based; settings: in vivo
[31] = Tmax in ddy mouse at 1 mg/kg, iv or po by LC-MS/MS analysis; format: ADME, organism-based; settings: in vivo
[32] = Half life in ddy mouse at 1 mg/kg, iv or po by LC-MS/MS analysis; format: ADME, organism-based; settings: in vivo
[33] = AUC (infinity) in ddy mouse at 1 mg/kg, iv or po by LC-MS/MS analysis; format: ADME, organism-based; settings: in vivo
[34] = Oral bioavailability in ddy mouse at 1 mg/kg by LC-MS/MS analysis; format: ADME, organism-based; settings: in vivo
[35] = Clearance in ddy mouse at 1 mg/kg, iv by LC-MS/MS analysis; format: ADME, organism-based; settings: in vivo
[36] = Volume of distribution at steady state in ddy mouse at 1 mg/kg, iv by LC-MS/MS analysis; format: ADME, organism-based; settings: in vivo, read-out: Vdss
[37] = Cmax in ddy mouse at 3 mg/kg, iv or po by LC-MS/MS analysis; format: ADME, organism-based; settings: in vivo
[38] = Tmax in ddy mouse at 3 mg/kg, iv or po by LC-MS/MS analysis; format: ADME, organism-based; settings: in vivo
[39] = Half life in ddy mouse at 3 mg/kg, iv or po by LC-MS/MS analysis; format: ADME, organism-based; settings: in vivo
[40] = AUC (infinity) in ddy mouse at 3 mg/kg, iv or po by LC-MS/MS analysis; format: ADME, organism-based; settings: in vivo
[41] = Oral bioavailability in ddy mouse at 3 mg/kg by LC-MS/MS analysis; format: ADME, organism-based; settings: in vivo
[42] = Clearance in ddy mouse at 3 mg/kg, iv by LC-MS/MS analysis; format: ADME, organism-based; settings: in vivo
[43] = Volume of distribution at steady state in ddy mouse at 3 mg/kg, iv by LC-MS/MS analysis; format: ADME, organism-based; settings: in vivo, read-out: Vdss
[44] = Toxicity in Crl:CD1(ICR) mouse assessed as effect on spontaneous locomotor activity by measuring NOEL administered as single dose measured at 10 mins interval starting from 2 to 3 hrs; settings: in vivo
[45] = Toxicity in Crl:CD1(ICR) mouse assessed as effect on motor coordination by measuring NOEL administered as single dose measured after 0.5 to 2 hrs by rotarod test; settings: in vivo
[46] = Toxicity in Crl:CD1(ICR) mouse assessed as effect on respiratory system by measuring NOEL administered as single dose measured after 0.5 to 24 hrs by WBP method; settings: in vivo
[47] = Toxicity in cynomolgus monkey assessed as effect on cardiovascular system by measuring NOEL administered as single dose measured after 1 to 24 hrs by telemetry; design: species or system Macaca fascicularis; settings: in vivo
[48] = Chronic toxicity in male Crl:CD1(ICR) mouse assessed as NOAEL administered for 6 months; settings: in vivo
[49] = Chronic toxicity in female Crl:CD1(ICR) mouse assessed as NOAEL administered for 6 months; settings: in vivo
[50] = Chronic toxicity in male cynomolgus monkey assessed as NOAEL administered for 9 months; design: species or system Macaca fascicularis; settings: in vivo
[51] = Chronic toxicity in female cynomolgus monkey assessed as NOAEL administered for 9 months; design: species or system Macaca fascicularis; settings: in vivo
[52] = Cmax in male Crl:CD1(ICR) mouse at 1000 mg/kg administered for 6 months measured 24 hrs post last dose; format: ADME, organism-based; design: dose 1000 mg/kg; settings: in vivo
[53] = Cmax in female Crl:CD1(ICR) mouse at 1000 mg/kg administered for 6 months measured 24 hrs post last dose with 1 month recovery; format: ADME, organism-based; design: dose 1000 mg/kg; settings: in vivo
[54] = Cmax in male cynomolgus monkey at 1000 mg/kg administered for 9 months measured 24 hrs post last dose with 1 month recovery; format: ADME, organism-based, Macaca fascicularis; design: dose 1000 mg/kg; settings: in vivo
[55] = Cmax in female cynomolgus monkey at 1000 mg/kg administered for 9 months measured 24 hrs post last dose with 1 month recovery; format: ADME, organism-based, Macaca fascicularis; design: dose 1000 mg/kg; settings: in vivo
[56] = Tmax in male Crl:CD1(ICR) mouse at 1000 mg/kg administered for 6 months measured 24 hrs post last dose; format: ADME, organism-based; settings: in vivo
[57] = Tmax in female Crl:CD1(ICR) mouse at 1000 mg/kg administered for 6 months measured 24 hrs post last dose with 1 month recovery; format: ADME, organism-based; settings: in vivo
[58] = Tmax in male cynomolgus monkey at 1000 mg/kg administered for 9 months measured 24 hrs post last dose with 1 month recovery; format: ADME, organism-based, Macaca fascicularis; settings: in vivo
[59] = Tmax in female cynomolgus monkey at 1000 mg/kg administered for 9 months measured 24 hrs post last dose with 1 month recovery; format: ADME, organism-based, Macaca fascicularis; settings: in vivo
[60] = AUC (0 to 24 hrs) in male Crl:CD1(ICR) mouse at 1000 mg/kg administered for 6 months measured 24 hrs post last dose; format: ADME, organism-based; design: dose 1000 mg/kg, time < 24 hr; settings: in vivo
[61] = AUC (0 to 24 hrs) in female Crl:CD1(ICR) mouse at 1000 mg/kg administered for 6 months measured 24 hrs post last dose with 1 month recovery; format: ADME, organism-based; design: dose 1000 mg/kg, time < 24 hr; settings: in vivo
[62] = AUC (0 to 24 hrs) in male cynomolgus monkey at 1000 mg/kg administered for 9 months measured 24 hrs post last dose with 1 month recovery; format: ADME, organism-based, Macaca fascicularis; design: time < 24 hr, dose 1000 mg/kg; settings: in vivo
[63] = AUC (0 to 24 hrs) in female cynomolgus monkey at 1000 mg/kg administered for 9 months measured 24 hrs post last dose with 1 month recovery; format: ADME, organism-based, Macaca fascicularis; design: time < 24 hr, dose 1000 mg/kg; settings: in vivo

Cn1nccc1[C@H]1CCCC[C@@H]1Oc1cc(F)c(S(=O)(=O)Nc2ccncn2)cc1Cl (racemic) [DS-1971]
logD at 0.5 h [1]: 0.8
solubility thermodynamic at 4 h ([2]; pH 6.8, read-out: Therm_solubility): > 2000 µM
Stability [3]: 70%

Cn1nccc1[C@H]1CCCC[C@@H]1Oc1cc(F)c(S(=O)(=O)Nc2ccncn2)cc1Cl [DS-1971]
NOAEL at 24 h [4]: 1000 mg/kg
Therm_solubility ([2]; pH 6.8, 4 h, 4 h): 1500 µM
Stability [3]: 92%
remaining at 0.5 h [5]: 94%
remaining at 0.5 h [6]: 95%
remaining at 0.5 h [7]: 78%
remaining at 0.5 h [8]: 66%
Cmax [9]: 1570 nM
Tmax [10]: 49.8 min
half-life [11]: 221 min
AUC(0-inf) [12]: 2.06 µM·h
bioavailability [13]: 35%
clearance [14]: 6.55 mL/min/kg
Vd [15]: 0.15 L/kg
Cmax [16]: 1710 nM
Tmax [17]: 30 min
half-life [18]: 240 min
AUC(0-inf) [19]: 3.23 µM·h
bioavailability [20]: 77%
clearance [21]: 8.7 mL/min/kg
Vd [22]: 0.57 L/kg
Cmax [23]: 103 nM
Tmax [24]: 30 min
half-life [25]: 46.2 min
AUC(0-inf) [26]: 0.103 µM·h
bioavailability [27]: 16%
clearance [28]: 47 mL/min/kg
Vd [29]: 1.2 L/kg
Cmax [30]: 105 nM
Tmax [31]: 5 min
half-life [32]: 121 min
AUC(0-inf) [33]: 0.0689 µM·h
bioavailability [34]: 15%
clearance [35]: 78.7 mL/min/kg
Vd [36]: 1.37 L/kg
Cmax [37]: 464 nM
Tmax [38]: 15 min
half-life [39]: 92.4 min
AUC(0-inf) [40]: 0.277 µM·h
bioavailability [41]: 11%
clearance [42]: 45.3 mL/min/kg
Vd [43]: 0.565 L/kg
NOAEL [44]: 1000 mg/kg
NOAEL [45]: 1000 mg/kg
NOAEL [46]: 1000 mg/kg
NOAEL [47]: 1000 mg/kg
NOAEL at 6 months [48]: 1000 mg/kg
NOAEL at 6 months [49]: 1000 mg/kg
NOAEL at 9 months [50]: 1000 mg/kg
NOAEL at 9 months [51]: 1000 mg/kg
Cmax [52]: 9.44 µM
Cmax [53]: 105 µM
Cmax [54]: 28.1 µM
Cmax [55]: 22.5 µM
Tmax [56]: 30 min
Tmax [57]: 6 h
Tmax [58]: 1.2 h
Tmax [59]: 1.2 h
AUC(0-t) at 24 h [60]: 65.9 µM·h
AUC(0-t) at 24 h [61]: 1400 µM·h
AUC(0-t) at 24 h [62]: 146 µM·h
AUC(0-t) at 24 h [63]: 100 µM·h
